The test system of the experiment is male Wistar rats. Briefly: Comparison with known active ingredients in male Wistar rats under sodium thiopental anaesthesia, rapid i.v. or 5 min infusion. It counts as in vivo, rat (male Wistar). The procedure: In order to compare the activity of the compounds of the present invention to that of the products of the prior art, various doses of known anti-hypertensive, hypotensive and vasoactive drugs were administered to male Wistar rats under general anaesthesia by sodium thiopental (50 mg/kg, i.p.). The administration was effected through "rapid" i.v. route or through intravenous infusion (inf.) for a time of 5 minutes.
The dose of each product is referred to the base, and the volumes injected were of 100 mcl in case of i.v. administration and […] total (0.9% sodium chloride solution) in case of infusion. The various parameters were evaluated in the same way as in the preceding experiments.

Where [1] appears, read: 5 mcg/kg, i.v., maximum response.
The mark [2] stands for this setting: 5 mg/kg, inf., maximum response.
Setting [3] is: 1 mcg/kg, i.v., maximum response.

As to `NCCc1c[nH]cn1` [Histamine], under setting [1], the “Δ AP DIASTOLIC” value was -28 ± 3 mmHg, the “Δ AP SYSTOLIC” value was -30 ± 3 mmHg, the “Δ HR” value is on record as -7 ± 1 beats/min and the Δ dp/dt is recorded as -1314 ± 180 mmHg/sec.
`COC(=O)[C@H]1[C@H]2C[C@@H]3c4[nH]c5cc(OC)ccc5c4CCN3C[C@H]2C[C@@H](OC(=O)c2cc(OC)c(OC)c(OC)c2)[C@@H]1OC` [Reserpine]: under setting [2], the “Δ AP DIASTOLIC” value is -24 ± 5 mmHg, the “Δ AP SYSTOLIC” value was -31 ± 6 mmHg, the “Δ HR” value is -47 ± 9 beats/min and the Δ dp/dt was -1580 ± 134 mmHg/sec. The “general effects on the various haemodynamic parameters (in words)” value (rat) is given as “general "depressive" effects”.
For `NCCc1c[nH]c2ccc(O)cc12` [5-hydroxytriptamine], under setting [1], the “Δ AP DIASTOLIC” value is -39 ± 2 mmHg, the “Δ AP SYSTOLIC” value is on record as -37 ± 3 mmHg, the “Δ HR” value is given as -12 ± 3 beats/min and the Δ dp/dt is -1410 ± 167 mmHg/sec.
For `Clc1cccc(Cl)c1N=C1NCCN1` [Clonidine], where the note is “rat, in vivo”, the “general effects on the various haemodynamic parameters (in words)” value is on record as “general "depressive" effects”, the “Δ AP DIASTOLIC” value was -9 ± 1 mmHg, the “Δ AP SYSTOLIC” value was -15 ± 4 mmHg and the “Δ HR” value is on record as -40 ± 8 beats/min. The same molecule showed a Δ dp/dt (rat, in vivo) of -871 ± 74.
`N=C(N)NCCN1CCCCCCC1` [Guanetidine]: for the setting “rat, in vivo”, the “Δ HR” value is listed as -18 ± 6 beats/min and the Δ dp/dt is listed as -863 ± 160.
In the case of `NC[C@H](O)c1ccc(O)c(O)c1` [Noradrenaline], under setting [3], the “Δ AP DIASTOLIC” value was “+31 ± 2 mmHg”, the “Δ AP SYSTOLIC” value is “+44 ± 3 mmHg”, the “Δ HR” value was “+14 ± 4 beats/min” and the Δ dp/dt entry is given as “+4314 ± 415 mmHg/sec”.

These data come from patent US5059624A, “Guanidine derivatives having hypotensive activity, composition containing them and process for obtaining them” (Consiglio Nazionale Delle Ricerche, priority 1988, dated 1991).
